In the supplement of paper PMC11061612:

Key:
Assay in all cases: combination Emax (second highest fraction inhibited in the dose matrix, 72 h); higher = more inhibition; extreme values may be limits of the assay
[1] = test system: COR-L279 (Small Cell Lung Carcinoma)
Procedure, shortened: (§1)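 After 24 hours at 37°C and 5% CO2 in 1536-well plates, cells in DMEM/F12 or RPMI plus 10% FBS received two-drug dose matrices for 72 hours. Viability came from CellTiter-Glo 2.0 luminescence and was scaled as inhibition, anchored at 0 by vehicle wells and at 1 by blank wells. Combination Emax is taken as the second-highest inhibition in the matrix, and Bliss excess as the observed combination effect less EA + EB − EA·EB, with EA and EB the single-agent effects.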

[2] = test system: CW-2 (Colorectal Carcinoma)
Procedure, shortened: as §1

[3] = test system: DAN-G (Pancreatic Carcinoma)
Procedure, shortened: as §1

[4] = test system: DMS-114 (Small Cell Lung Carcinoma)
Procedure, shortened: as §1

[5] = test system: G-361 (Melanoma)
Procedure, shortened: as §1

[6] = test system: KMS-12-BM (Plasma Cell Myeloma)
Procedure, shortened: as §1

[7] = test system: M059J (Glioblastoma)
Procedure, shortened: as §1

[8] = test system: MN-60 (B-Lymphoblastic Leukemia)
Procedure, shortened: as §1

[9] = test system: MOG-G-CCM (Low Grade Glioma)
Procedure, shortened: as §1

[10] = test system: MOLM-13 (Acute Myeloid Leukemia)
Procedure, shortened: as §1

[11] = test system: NCCIT (Other Solid Carcinomas)
Procedure, shortened: as §1

[12] = test system: NCI-H2731 (Mesothelioma)
Procedure, shortened: as §1

[13] = test system: NCI-H3122 (Lung Adenocarcinoma)
Procedure, shortened: as §1

[14] = test system: NCI-H526 (Small Cell Lung Carcinoma)
Procedure, shortened: as §1

[15] = test system: NCI-H661 (Non-Small Cell Lung Carcinoma)
Procedure, shortened: as §1

[16] = test system: NCI-H929 (Plasma Cell Myeloma)
Procedure, shortened: as §1

[17] = test system: PC-3 (Prostate Carcinoma)
Procedure, shortened: as §1

[18] = test system: SK-GT-2 (Gastric Carcinoma)
Procedure, shortened: as §1

[19] = test system: ST486 (Burkitt's Lymphoma)
Procedure, shortened: as §1

[20] = test system: SU-DHL-5 (B-Cell Non-Hodgkin's Lymphoma)
Procedure, shortened: as §1

Row | Structure (SMILES) | combination Emax [1] | combination Emax [2] | combination Emax [3] | combination Emax [4] | combination Emax [5] | combination Emax [6] | combination Emax [7] | combination Emax [8] | combination Emax [9] | combination Emax [10] | combination Emax [11] | combination Emax [12] | combination Emax [13] | combination Emax [14] | combination Emax [15] | combination Emax [16] | combination Emax [17] | combination Emax [18] | combination Emax [19] | combination Emax [20]
1 | COc1cccc(OCCCN)c1-c1cc(Nc2cnc(C#N)cn2)n[nH]1 [Prexasertib] + C=CCn1c(=O)c2cnc(Nc3ccc(N4CCN(C)CC4)cc3)nc2n1-c1cccc(C(C)(C)O)n1 [AZD1775] (first compound max 1 µM, partner max 1 µM) | 0.881 | 0.601 | 0.801 | 0.385 | 0.765 | 1 | 0.822 | 0.653 | 0.821 | 1 | 0.917 | 0.544 | 0.896 | 0.937 | 0.788 | 0.847 | 0.442 | 0.899 | 1 | 1
2 | COc1cccc(OCCCN)c1-c1cc(Nc2cnc(C#N)cn2)n[nH]1 [Prexasertib] + CCc1c2c(nc3ccc(O)cc13)-c1cc3c(c(=O)n1C2)COC(=O)[C@]3(O)CC [SN-38] (first compound max 1 µM, 7x7, partner max 0.3 µM) | 1 | 0.612 | 0.933 | 0.716 | 0.727 | 1 | 0.98 | 0.825 | 0.894 | 1 | 0.85 | 0.663 | 0.933 | 1 | 0.889 | 0.865 | 0.703 | 0.975 | 1 | 1
3 | COc1cccc(OCCCN)c1-c1cc(Nc2cnc(C#N)cn2)n[nH]1 [Prexasertib] + CN(C)CCCOc1ccc(-c2ccc3ncc4c(c3c2)n(C2CCOCC2)c(=O)n4C)cn1 [AZD0156] (first compound max 1 µM, 7x7, partner max 1 µM) | 0.809 | 0.401 | 0.824 | 0.408 | 0.702 | 1 | 0.658 | 0.546 | 0.699 | 1 | 0.833 | 0.406 | 0.697 | 0.895 | 0.744 | 0.825 | 0.272 | 0.823 | 0.991 | 1
4 | COc1cccc(OCCCN)c1-c1cc(Nc2cnc(C#N)cn2)n[nH]1 [Prexasertib] + C[C@@H]1COCCN1C2=NC(=NC(=C2)C3(CC3)[S@](=N)(=O)C)C4=C5C=CNC5=NC=C4 [AZD6738] (first compound max 1 µM, 7x7, partner max 10 µM) | 0.835 | 0.614 | 0.769 | 0.514 | 0.655 | 1 | 0.686 | 0.562 | 0.644 | 1 | 0.797 | 0.395 | 0.794 | 0.92 | 0.744 | 0.741 | 0.431 | 0.81 | 0.98 | 1
5 | COc1cccc(OCCCN)c1-c1cc(Nc2cnc(C#N)cn2)n[nH]1 [Prexasertib] + Cc1cc2ncnn2cc1Nc1ncc2c(n1)n(C1CCOCC1)c(=O)n2C [AZD7648] (first compound max 1 µM, 7x7, partner max 10 µM) | 0.803 | 0.474 | 0.816 | 0.477 | 0.696 | 1 | 0.693 | 0.555 | 0.702 | 1 | 0.801 | 0.385 | 0.664 | 0.92 | 0.75 | 0.847 | 0.358 | 0.833 | 0.996 | 1
6 | COc1cccc(OCCCN)c1-c1cc(Nc2cnc(C#N)cn2)n[nH]1 [Prexasertib] + O=C(c1cc(Cc2n[nH]c(=O)c3ccccc23)ccc1F)N1CCN(C(=O)C2CC2)CC1 [Olaparib] (first compound max 1 µM, 7x7, partner max 10 µM) | 0.923 | 0.301 | 0.801 | 0.412 | 0.668 | 1 | 0.779 | 0.424 | 0.673 | 1 | 0.621 | 0.387 | 0.747 | 0.912 | 0.797 | 0.727 | 0.43 | 0.834 | 0.973 | 1
